Earlier results, collected in patent US20090022779A1, “Phenytoin Formulations, and Uses Thereof in Wound Healing” (Royal College of Surgeons in Ireland, priority 2004, published 2009).

Settings: background statement

solubility in water | Compound
only slightly soluble | O=C1NC(=O)C(c2ccccc2)(c2ccccc2)N1 [Phenyloin, 5,5-diphenylimidazolidine-2,4-dione]
soluble | O=C1N=C([O-])NC1(c1ccccc1)c1ccccc1.[Na+] [Phenyloin sodium salt]
